PubChem BioAssay AID256 (DTP/NCI, 2004)
Several values for one entry are separate records, joined by “and”; a condition that tells them apart may be missing. Equal entries are not always repeated. Inconclusive results and toxic doses are left out. Non-standard residues stand in square brackets, D forms with d. Residues, ends and D or L forms follow the SMILES beside them. ξ: configuration not given here. *: point of attachment. ξV = CC(C)C(N)C(=O)O; ClAc = O=C(CCl)*

System: CD2F1 mice, L1210 leukemia ip, survival T/C
Assay: NCI In Vivo Anticancer Drug Screen. Data for tumor model L1210 Leukemia (intraperitoneal) in CD2F1 (CDF1) mice
Conditions: higher = longer survival
Procedure, shortened: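 Vehicle-treated tumor-bearing mice served as controls (C) for compound-treated mice (T). Reported figure is T divided by C.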

[1] = endpoint: mean survival time, dose: 25.0 mg/kg/injection, schedule: Q04DX003 (ip), vehicle: saline with Tween-80
[2] = endpoint: mean survival time, dose: 50.0 mg/kg/injection, schedule: Q04DX003 (ip), vehicle: saline with Tween-80
[3] = endpoint: mean survival time, dose: 100.0 mg/kg/injection, schedule: Q04DX003 (ip), vehicle: saline with Tween-80
[4] = endpoint: mean survival time, dose: 100.0 mg/kg/injection, schedule: Q01DX001 (ip), vehicle: saline
[5] = endpoint: mean survival time, dose: 200.0 mg/kg/injection, schedule: Q01DX001 (ip), vehicle: saline
[6] = endpoint: mean survival time, dose: 400.0 mg/kg/injection, schedule: Q01DX001 (ip), vehicle: saline
[7] = endpoint: mean survival time, dose: 100.0 mg/kg/injection, schedule: Q01DX009 (ip), vehicle: saline with Tween-80
[8] = endpoint: mean survival time, dose: 200.0 mg/kg/injection, schedule: Q01DX009 (ip), vehicle: saline with Tween-80
[9] = endpoint: mean survival time, dose: 400.0 mg/kg/injection, schedule: Q01DX009 (ip), vehicle: saline with Tween-80

Nc1ccn([C@H]2C[C@@H](CO)[C@H](O)[C@@H]2O)c(=O)n1
T/C (endpoint: mean survival time, dose: 22.0 mg/kg/injection, schedule: Q03HX024 (ip), vehicle: saline): 159 % of control | T/C (endpoint: mean survival time, dose: 33.0 mg/kg/injection, schedule: Q03HX024 (ip), vehicle: saline): 164 % of control | T/C (endpoint: mean survival time, dose: 50.0 mg/kg/injection, schedule: Q03HX024 (ip), vehicle: saline): 169 % of control | T/C (endpoint: mean survival time, dose: 75.0 mg/kg/injection, schedule: Q04HX024 (ip), vehicle: saline): 176 % of control | T/C (endpoint: mean survival time, dose: 100.0 mg/kg/injection, schedule: Q04HX024 (ip), vehicle: saline): 177 % of control | T/C (endpoint: mean survival time, dose: 150.0 mg/kg/injection, schedule: Q01DX009 (ip), vehicle: saline): 150 % of control | T/C (endpoint: mean survival time, dose: 200.0 mg/kg/injection, schedule: Q01DX009 (ip), vehicle: saline): 182 % of control | T/C (endpoint: mean survival time, dose: 450.0 mg/kg/injection, schedule: Q01DX009 (ip), vehicle: saline): 166 % of control

CC(=O)NC/C(C)=N/Nc1ccc([N+](=O)[O-])cc1[N+](=O)[O-]
T/C [1]: 93 % of control | T/C [2]: 87 % of control | T/C [3]: 91 % of control

Cc1ccc(-c2noc(C)n2)cc1
T/C [4]: 103 % of control | T/C [5]: 105 % of control | T/C [6]: 103 % of control

O=[N+]([O-])c1ccc(N=C(Cl)N2CCCCC2)cc1
T/C [4]: 109 % of control | T/C [5]: 103 % of control | T/C [6]: 107 % of control

CCOc1nc(N)nc2c1ncn2C1CC(O)C(CO)O1 (configuration not stated)
T/C (endpoint: mean survival time, dose: 12.5 mg/kg/injection, schedule: Q01DX005 (ip), vehicle: water): 95 % of control | T/C (endpoint: mean survival time, dose: 25.0 mg/kg/injection, schedule: Q01DX005 (ip), vehicle: water): 98 % of control | T/C (endpoint: mean survival time, dose: 50.0 mg/kg/injection, schedule: Q01DX005 (ip), vehicle: water): 102 % of control | T/C (endpoint: mean survival time, dose: 100.0 mg/kg/injection, schedule: Q01DX005 (ip), vehicle: water): 109 % of control | T/C (endpoint: mean survival time, dose: 200.0 mg/kg/injection, schedule: Q01DX005 (ip), vehicle: water): 98 % of control

NC(=O)c1cn(C2OC(CO)C(O)C2O)nc1N (configuration not stated)
T/C (endpoint: mean survival time, dose: 100.0 mg/kg/injection, schedule: Q01DX005 (ip), vehicle: saline): 100 % of control | T/C (endpoint: mean survival time, dose: 200.0 mg/kg/injection, schedule: Q01DX005 (ip), vehicle: saline): 105 % of control

O=C1NC(=O)C(c2ccc(Cl)cc2)N1 (configuration not stated)
T/C [7]: 93 % of control | T/C [8]: 105 % of control | T/C [9]: 104 % of control

CC[C@](O)(C(=O)O)c1cc2n(c(=O)c1CO)Cc1cc3ccccc3nc1-2
T/C (endpoint: mean survival time, dose: 1.0 mg/kg/injection, schedule: Q04DX003 (ip), vehicle: water): 100 % of control | T/C (endpoint: mean survival time, dose: 2.0 mg/kg/injection, schedule: Q04DX003 (ip), vehicle: water): 107 % of control | T/C (endpoint: mean survival time, dose: 4.0 mg/kg/injection, schedule: Q04DX003 (ip), vehicle: water): 108 % of control | T/C (endpoint: mean survival time, dose: 12.5 mg/kg/injection, schedule: Q04DX003 (ip), vehicle: water): 159 % of control | T/C (endpoint: mean survival time, dose: 16.0 mg/kg/injection, schedule: Q04DX003 (ip), vehicle: water): 175 % of control | T/C (endpoint: mean survival time, dose: 50.0 mg/kg/injection, schedule: Q04DX003 (ip), vehicle: water): 113 % of control and 119 % of control | T/C (endpoint: mean survival time, dose: 100.0 mg/kg/injection, schedule: Q04DX003 (ip), vehicle: water): 93 % of control | T/C (endpoint: median survival time, dose: 3.75 mg/kg/injection, schedule: Q04HX004 (iv), vehicle: water): 115 % of control | T/C (endpoint: median survival time, dose: 5.0 mg/kg/injection, schedule: Q04DX002 (ip), vehicle: water): 117 % of control and 121 % of control and 123 % of control | T/C (endpoint: median survival time, dose: 5.0 mg/kg/injection, schedule: Q04DX002 (iv), vehicle: water): 115 % of control | T/C (endpoint: median survival time, dose: 6.2 mg/kg/injection, schedule: Q04HX004 (iv), vehicle: water): 167 % of control | T/C (endpoint: median survival time, dose: 6.25 mg/kg/injection, schedule: Q04HX004 (iv), vehicle: saline): 177 % of control | T/C (endpoint: median survival time, dose: 6.25 mg/kg/injection, schedule: Q04HX004 (iv), vehicle: water): 162 % of control and 178 % of control | T/C (endpoint: median survival time, dose: 7.5 mg/kg/injection, schedule: Q04HX004 (iv), vehicle: other): 170 % of control | T/C (endpoint: median survival time, dose: 7.5 mg/kg/injection, schedule: Q04HX004 (iv), vehicle: water): 166 % of control and 180 % of control | T/C (endpoint: median survival time, dose: 12.5 mg/kg/injection, schedule: Q04DX003 (ip), vehicle: clinical formulation): 178 % of control | T/C (endpoint: median survival time, dose: 12.5 mg/kg/injection, schedule: Q04DX003 (ip), vehicle: saline): 167 % of control | T/C (endpoint: median survival time, dose: 12.5 mg/kg/injection, schedule: Q04HX004 (iv), vehicle: saline): 160 % of control and 190 % of control | T/C (endpoint: median survival time, dose: 12.5 mg/kg/injection, schedule: Q04HX004 (iv), vehicle: water): 177 % of control and 193 % of control and 196 % of control | T/C (endpoint: median survival time, dose: 15.0 mg/kg/injection, schedule: Q04HX004 (iv), vehicle: dextrose): 195 % of control | T/C (endpoint: median survival time, dose: 15.0 mg/kg/injection, schedule: Q04HX004 (iv), vehicle: other): 192 % of control | T/C (endpoint: median survival time, dose: 15.0 mg/kg/injection, schedule: Q04HX004 (iv), vehicle: water): 200 % of control and 208 % of control | T/C (endpoint: median survival time, dose: 20.0 mg/kg/injection, schedule: Q04DX002 (ip), vehicle: saline): 151 % of control and 168 % of control (2×) | T/C (endpoint: median survival time, dose: 25.0 mg/kg/injection, schedule: Q04DX002 (ip), vehicle: water): 156 % of control and 195 % of control | T/C (endpoint: median survival time, dose: 25.0 mg/kg/injection, schedule: Q04DX003 (ip), vehicle: clinical formulation): 229 % of control | T/C (endpoint: median survival time, dose: 25.0 mg/kg/injection, schedule: Q04DX003 (ip), vehicle: saline): 218 % of control | T/C (endpoint: median survival time, dose: 25.0 mg/kg/injection, schedule: Q04HX004 (iv), vehicle: saline): 198 % of control and 226 % of control | T/C (endpoint: median survival time, dose: 25.0 mg/kg/injection, schedule: Q04HX004 (iv), vehicle: water): 206 % of control and 212 % of control and 230 % of control | T/C (endpoint: median survival time, dose: 30.0 mg/kg/injection, schedule: Q04HX004 (iv), vehicle: dextrose): 227 % of control | T/C (endpoint: median survival time, dose: 30.0 mg/kg/injection, schedule: Q04HX004 (iv), vehicle: other): 219 % of control | T/C (endpoint: median survival time, dose: 30.0 mg/kg/injection, schedule: Q04HX004 (iv), vehicle: water): 220 % of control and 227 % of control | T/C (endpoint: median survival time, dose: 40.0 mg/kg/injection, schedule: Q04DX002 (ip), vehicle: saline): 181 % of control and 185 % of control and 200 % of control | T/C (endpoint: median survival time, dose: 40.0 mg/kg/injection, schedule: Q04DX002 (iv), vehicle: water): 183 % of control | T/C (endpoint: median survival time, dose: 40.0 mg/kg/injection, schedule: Q04HX004 (iv), vehicle: other): 247 % of control | T/C (endpoint: median survival time, dose: 40.0 mg/kg/injection, schedule: Q04HX004 (iv), vehicle: water): 226 % of control and 253 % of control | T/C (endpoint: median survival time, dose: 50.0 mg/kg/injection, schedule: Q04DX002 (ip), vehicle: water): 173 % of control and 217 % of control | T/C (endpoint: median survival time, dose: 50.0 mg/kg/injection, schedule: Q04DX003 (ip), vehicle: saline): 263 % of control | T/C (endpoint: median survival time, dose: 50.0 mg/kg/injection, schedule: Q04HX004 (iv), vehicle: saline): 211 % of control and 256 % of control | T/C (endpoint: median survival time, dose: 50.0 mg/kg/injection, schedule: Q04HX004 (iv), vehicle: water): 225 % of control and 261 % of control and 101 % of control | T/C (endpoint: median survival time, dose: 80.0 mg/kg/injection, schedule: Q04DX002 (ip), vehicle: saline): 205 % of control and 216 % of control and 227 % of control | T/C (endpoint: median survival time, dose: 80.0 mg/kg/injection, schedule: Q04DX002 (iv), vehicle: water): 252 % of control | T/C (endpoint: median survival time, dose: 100.0 mg/kg/injection, schedule: Q04DX002 (ip), vehicle: water): 204 % of control and 233 % of control | T/C (endpoint: median survival time, dose: 100.0 mg/kg/injection, schedule: Q04DX003 (ip), vehicle: saline): 108 % of control

C(=N\Nc1nc2ccccc2s1)/c1ccnc2ccccc12
T/C (endpoint: mean survival time, dose: 100.0 mg/kg/injection, schedule: Q04DX003 (ip), vehicle: Klucel (hydroxypropylcellulose) (HPC)): 94 % of control | T/C (endpoint: mean survival time, dose: 200.0 mg/kg/injection, schedule: Q04DX003 (ip), vehicle: Klucel (hydroxypropylcellulose) (HPC)): 92 % of control | T/C (endpoint: mean survival time, dose: 400.0 mg/kg/injection, schedule: Q04DX003 (ip), vehicle: Klucel (hydroxypropylcellulose) (HPC)): 94 % of control

CC(C)(C)N[P+](C)(NC(C)(C)C)c1ccccc1
T/C (endpoint: mean survival time, dose: 3.13 mg/kg/injection, schedule: Q04DX003 (ip), vehicle: saline): 98 % of control | T/C (endpoint: mean survival time, dose: 6.25 mg/kg/injection, schedule: Q04DX003 (ip), vehicle: saline): 103 % of control | T/C (endpoint: mean survival time, dose: 12.5 mg/kg/injection, schedule: Q04DX003 (ip), vehicle: saline): 86 % of control and 95 % of control

CCCCCCCCCCCCNCCC(=O)O
T/C (endpoint: mean survival time, dose: 75.0 mg/kg/injection, schedule: Q01DX001 (ip), vehicle: saline): 93 % of control | T/C (endpoint: mean survival time, dose: 150.0 mg/kg/injection, schedule: Q01DX001 (ip), vehicle: saline): 93 % of control

CC(C)C(NC(=O)CNC(=O)CCl)C(=O)O (configuration not stated) (ClAc-Gly-[ξV]-OH)
T/C (endpoint: mean survival time, dose: 25.0 mg/kg/injection, schedule: Q01DX009 (ip), vehicle: saline with Tween-80): 92 % of control | T/C [1]: 96 % of control | T/C (endpoint: mean survival time, dose: 50.0 mg/kg/injection, schedule: Q01DX009 (ip), vehicle: saline with Tween-80): 97 % of control | T/C [2]: 100 % of control | T/C [7]: 97 % of control | T/C [3]: 100 % of control

Nc1nc2nc(-c3ccccc3)c(-c3ccccc3)nc2c(=O)[nH]1
T/C [7]: 96 % of control | T/C [8]: 94 % of control | T/C [9]: 97 % of control
